# Results taken from PubChem BioAssay (NCI).
#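 Five compound concentrations were applied to cells in 96-well plates for 48 hours; endpoints were derived by simple linear interpolation of the resulting dose-response curve. TGI: concentration producing complete growth inhibition.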
# How the values were obtained:
# Experiment in all cases: inhibition of tumour cell growth, NCI panel, 48 h
# [1] = test system: TK-10 renal
# [2] = test system: CCRF-CEM leukemia
# [3] = test system: NCI-H522 lung
# [4] = test system: M19-MEL melanoma
# [5] = test system: SF-539 CNS
# [6] = test system: HOP-92 NSCLC
# [7] = test system: A549 NSCLC
# [8] = test system: SK-MEL-5 melanoma
# [9] = test system: IGROV1 ovarian
# [10] = test system: SNB-75 CNS
# [11] = test system: COLO 205 colon
# [12] = test system: HT29 colon
# [13] = test system: M14 melanoma
# [14] = test system: SK-OV-3 ovarian
# [15] = test system: SNB-19 CNS
# [16] = test system: DMS 114 small cell lung
# [17] = test system: LXFL 529 NSCLC
# [18] = test system: UACC-257 melanoma
# [19] = test system: UACC-62 melanoma
# [20] = test system: NCI-H226 lung
# [21] = test system: DMS 273 small cell lung
# [22] = test system: HOP-18 NSCLC
# [23] = test system: LOX IMVI melanoma
# [24] = test system: KM12 colon
# [25] = test system: SN12C renal
# [26] = test system: UO-31 renal
# [27] = test system: OVCAR-8 ovarian
# [28] = test system: DLD-1 colon
# [29] = test system: HCT-15 colon
# [30] = test system: NCI-H23 lung
# [31] = test system: EKVX NSCLC
# [32] = test system: U251 CNS
# [33] = test system: RPMI-8226 leukemia
# [34] = test system: HCT-116 colon
# [35] = test system: MOLT-4 leukemia
# [36] = test system: MALME-3M melanoma
# [37] = test system: 786-0 renal
# [38] = test system: SF-295 CNS
# [39] = test system: RXF 393 renal
# [40] = test system: HCC-2998 colon
# [41] = test system: OVCAR-3 ovarian
# [42] = test system: K-562 leukemia
# [43] = test system: SW-620 colon
# [44] = test system: SK-MEL-28 melanoma
# [45] = test system: HL-60(TB) leukemia
# [46] = test system: CAKI-1 renal
# [47] = test system: SNB-78 CNS
# [48] = test system: MDA-N
# [49] = test system: DU-145 prostate
# [50] = test system: T-47D breast
# [51] = test system: PC-3 prostate
# [52] = test system: BT-549 breast
# [53] = test system: NCI/ADR-RES ovarian
# [54] = test system: MDA-MB-231 breast
# [55] = test system: MDA-MB-435
# [56] = test system: A498 renal
# [57] = test system: ACHN renal
# [58] = test system: SR leukemia
# [59] = test system: OVCAR-5 ovarian
# [60] = test system: HOP-62 NSCLC
# [61] = test system: SF-268 CNS
# [62] = test system: SK-MEL-2 melanoma
# [63] = test system: HS 578T breast
# [64] = test system: OVCAR-4 ovarian
# [65] = test system: NCI-H460 lung
# [66] = test system: MCF7 breast
# [67] = test system: XF 498 CNS
# [68] = test system: KM20L2 colon
structure (smiles),measurement,setting,value
Cc1[nH]nc2c1C(=O)C=C(N(CCO)c1ccccc1)C2=O,TGI,[1],> 100 µM
same,TGI,[2],> 100 µM
same,TGI,[3],> 100 µM
same,TGI,[4],> 100 µM
same,TGI,[5],> 100 µM
same,TGI,[6],> 100 µM
same,TGI,[7],> 100 µM
same,TGI,[8],> 100 µM
same,TGI,[9],> 100 µM
same,TGI,[10],> 100 µM
same,TGI,[11],> 100 µM
same,TGI,[12],> 100 µM
same,TGI,[13],> 100 µM
same,TGI,[14],> 100 µM
same,TGI,[15],> 100 µM
same,TGI,[16],> 100 µM
same,TGI,[17],> 100 µM
same,TGI,[18],> 100 µM
same,TGI,[19],> 100 µM
same,TGI,[20],> 100 µM
same,TGI,[21],> 100 µM
same,TGI,[22],> 100 µM
same,TGI,[23],> 100 µM
same,TGI,[24],> 100 µM
same,TGI,[25],> 100 µM
same,TGI,[26],> 100 µM
same,TGI,[27],> 100 µM
same,TGI,[28],> 100 µM
same,TGI,[29],> 100 µM
same,TGI,[30],> 100 µM
same,TGI,[31],> 100 µM
same,TGI,[32],> 100 µM
same,TGI,[33],> 100 µM
same,TGI,[34],> 100 µM
same,TGI,[35],> 100 µM
same,TGI,[36],> 100 µM
same,TGI,[37],> 100 µM
same,TGI,[38],> 100 µM
same,TGI,[39],> 100 µM
same,TGI,[40],> 100 µM
same,TGI,[41],> 100 µM
same,TGI,[42],> 100 µM
same,TGI,[43],> 100 µM
same,TGI,[44],> 100 µM
same,TGI,[45],> 100 µM
same,TGI,[46],> 100 µM
same,TGI,[47],> 100 µM
CCCSc1ccc2[nH]c(N3C(=O)/C(=C/c4cc(OC)c(OC)c(OC)c4)N=C3c3ccccc3)cc2c1,TGI,[1],> 37.5 µM
same,TGI,[2],> 32.9 µM
same,TGI,[3],26.8 µM
same,TGI,[48],12.3 µM
same,TGI,[5],23.6 µM
same,TGI,[6],36.6 µM
same,TGI,[7],> 25.3 µM
same,TGI,[49],> 37.5 µM
same,TGI,[50],37 µM
same,TGI,[8],19 µM
same,TGI,[9],> 37.5 µM
same,TGI,[51],> 37.5 µM
same,TGI,[10],33.5 µM
same,TGI,[11],> 30.2 µM
same,TGI,[12],> 37.5 µM
same,TGI,[52],37.4 µM
same,TGI,[13],> 30.8 µM
same,TGI,[14],> 25.3 µM
same,TGI,[15],> 37.5 µM
same,TGI,[53],> 34.2 µM
same,TGI,[18],> 37.5 µM
same,TGI,[19],> 37.5 µM
same,TGI,[20],> 37.5 µM
same,TGI,[54],> 37.5 µM
same,TGI,[23],> 37.5 µM
same,TGI,[24],> 37.5 µM
same,TGI,[55],16 µM
same,TGI,[25],> 37.5 µM
same,TGI,[56],> 25.8 µM
same,TGI,[26],> 37.5 µM
same,TGI,[27],> 37.5 µM
same,TGI,[57],> 37.5 µM
same,TGI,[29],> 37.5 µM
same,TGI,[58],> 34.9 µM
same,TGI,[30],> 37.5 µM
same,TGI,[31],> 37.5 µM
same,TGI,[32],> 37.5 µM
same,TGI,[33],27.1 µM
same,TGI,[34],> 37.5 µM
same,TGI,[35],> 37.5 µM
same,TGI,[36],> 37.5 µM
same,TGI,[37],> 25 µM
same,TGI,[59],> 37.5 µM
same,TGI,[38],37.1 µM
same,TGI,[39],19.9 µM
same,TGI,[60],> 19.2 µM
same,TGI,[61],> 37.5 µM
same,TGI,[40],> 32.6 µM
same,TGI,[62],> 37.5 µM
same,TGI,[41],26.5 µM
same,TGI,[42],> 35.3 µM
same,TGI,[43],> 37.5 µM
same,TGI,[44],> 37.5 µM
same,TGI,[63],> 37.5 µM
same,TGI,[64],> 37.5 µM
same,TGI,[45],17.3 µM
same,TGI,[46],> 37.5 µM
same,TGI,[65],> 37.5 µM
same,TGI,[66],> 37.5 µM
Cc1nc2c(n1CCN(C)C)C(=O)c1ccccc1C2=O,TGI,[1],> 100 µM
same,TGI,[2],47.1 µM
same,TGI,[3],18.5 µM
same,TGI,[4],4.3 µM
same,TGI,[5],46.3 µM
same,TGI,[7],52.8 µM
same,TGI,[67],33.1 µM
same,TGI,[8],20.4 µM
same,TGI,[9],26.5 µM
same,TGI,[10],> 100 µM
same,TGI,[11],16.5 µM
same,TGI,[12],65.1 µM
same,TGI,[13],24.1 µM
same,TGI,[14],> 100 µM
same,TGI,[68],25.8 µM
same,TGI,[15],76.2 µM
same,TGI,[17],37.3 µM
same,TGI,[18],27.1 µM
same,TGI,[19],25.8 µM
same,TGI,[20],> 100 µM
same,TGI,[21],28.8 µM
same,TGI,[23],39.1 µM
same,TGI,[24],40.9 µM
same,TGI,[25],35.8 µM
same,TGI,[26],49 µM
same,TGI,[27],43.1 µM
same,TGI,[28],26.9 µM
same,TGI,[57],31.5 µM
same,TGI,[29],26 µM
same,TGI,[58],73.2 µM
same,TGI,[30],24.5 µM
same,TGI,[31],32.2 µM
same,TGI,[32],32.2 µM
same,TGI,[34],33 µM
same,TGI,[35],62.1 µM
same,TGI,[36],8.06 µM
same,TGI,[37],> 100 µM
same,TGI,[38],30.9 µM
same,TGI,[39],68.2 µM
same,TGI,[60],78.7 µM
same,TGI,[61],72 µM
same,TGI,[40],47.7 µM
same,TGI,[62],26.2 µM
same,TGI,[41],20 µM
same,TGI,[42],48.4 µM
same,TGI,[43],29 µM
same,TGI,[44],> 100 µM
same,TGI,[64],29.3 µM
same,TGI,[45],30.7 µM
same,TGI,[47],78.9 µM
same,TGI,[65],45.5 µM
COc1ccc2c(c1)CC[C@@H]1C2CC[C@]2(C)C(=O)N(N)C(=O)CC12 (stereo partly specified),TGI,[2],> 100 µM
same,TGI,[3],> 100 µM
same,TGI,[4],> 100 µM
same,TGI,[6],> 100 µM
same,TGI,[9],> 100 µM
same,TGI,[10],> 100 µM
same,TGI,[11],> 100 µM
same,TGI,[12],> 100 µM
same,TGI,[13],> 100 µM
same,TGI,[14],> 100 µM
same,TGI,[68],> 100 µM
same,TGI,[15],> 100 µM
same,TGI,[16],> 100 µM
same,TGI,[17],> 100 µM
same,TGI,[18],> 100 µM
same,TGI,[19],> 100 µM
same,TGI,[24],> 100 µM
same,TGI,[56],> 100 µM
same,TGI,[26],> 100 µM
same,TGI,[57],> 100 µM
same,TGI,[58],> 100 µM
same,TGI,[30],> 100 µM
same,TGI,[32],> 100 µM
same,TGI,[33],> 100 µM
same,TGI,[34],> 100 µM
same,TGI,[35],> 100 µM
same,TGI,[36],> 100 µM
same,TGI,[37],> 100 µM
same,TGI,[59],> 100 µM
same,TGI,[38],> 100 µM
same,TGI,[60],> 100 µM
same,TGI,[61],> 100 µM
same,TGI,[62],> 100 µM
same,TGI,[41],> 100 µM
same,TGI,[42],> 100 µM
same,TGI,[44],> 100 µM
same,TGI,[64],> 100 µM
same,TGI,[47],> 100 µM
same,TGI,[65],> 100 µM
